Target: T1, adenosine receptor (Rattus norvegicus, UniProt P25099)
T1 sequence (P25099 1-326): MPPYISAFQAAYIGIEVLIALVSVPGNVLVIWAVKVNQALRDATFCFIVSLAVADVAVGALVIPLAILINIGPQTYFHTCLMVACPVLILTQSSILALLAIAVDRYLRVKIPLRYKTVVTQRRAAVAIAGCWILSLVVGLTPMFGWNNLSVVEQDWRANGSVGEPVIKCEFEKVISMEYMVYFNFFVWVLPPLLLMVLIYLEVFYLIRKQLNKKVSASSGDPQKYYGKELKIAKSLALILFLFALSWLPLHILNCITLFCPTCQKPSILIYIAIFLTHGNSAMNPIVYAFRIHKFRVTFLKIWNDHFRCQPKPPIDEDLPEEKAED
Test: Binding of monoclonal anti-idiotypic antibodies to adenosine receptor preparation and rabbit anti-CPA
Details: adenosine receptor preparation from rat brain
Description: Protocols for immunization and fusion were essentially identical to that described previously for BisQ in Example 2. Immunization was effected with the RSA conjugate, but the BSA conjugate is just as satisfactory. Screening was conducted with the BSA conjugate and with a specifically purified rabbit antibody raised by immunization with the BSA conjugate. Specifically purified antibody was prepared in a manner analogous to that described for anti-BisQ antibody (1) except that the immunoadsorbent was N^6 -(carboxypentamethylene) adenosine linked to aminohexylsepharose (Pharmacia).

OC[C@H]1O[C@@H](n2cnc3c(NC4CCCCC4)ncnc32)[C@H](O)[C@@H]1O [N^6 -cyclohexyladenosine]
inhibition of the reaction of monoclonal anti-idiotypic antibodies with adenosine receptor: could be inhibited

Source: US5144010A, “Method of producing monoclonal auto-anti-idiotypic antibodies” (The Trustees of Columbia University in the City of New York, priority 1989, dated 1992)
